Reference: patent publication EP4692082A1, “CRYSTAL FORM OF 2,6-PIPERIDINEDIONE COMPOUND, AND PREPARATION METHOD THEREFOR AND USE THEREOF” (Zhangzhou Pien Tze Huang Pharmaceutical Co., Ltd., priority 2023, dated 2024)
Counter-ions that a name gives are not always drawn.

Legend:
[1] = Pharmacokinetic evaluation in mice; format: in vivo, C57BL/6 or C57 mice
Excerpt: C57BL/6 or C57 male mice were selected as the test animals for this study. The LC/MS/MS method was employed to quantitatively determine the plasma drug concentrations at various time points after intravenous injection or intragastric administration of the test compound, aiming to evaluate the pharmacokinetic characteristics of the compound of the present disclosure in mice.
C57BL/6 or C57 mice (male, 20 to 30g, 7 to 10 weeks old, Beijing Vital River).
A clear solution of the test compound was injected intravenously into the tail vein of C57BL/6 mice (fasted overnight) (vehicle: 10% DMSO/10% solutol/80% H2O), or administered intragastrically to C57 mice (fed). […] The mixture was thoroughly vortexed and mixed, and centrifuged at 6000 g for 3 minutes at 2 to 8°C. […] The mixture was thoroughly vortexed and mixed, and centrifuged at 6000 g for 3 minutes at 2 to 8°C. Plasma drug concentrations were determined by the LC-MS/MS method, and relevant pharmacokinetic parameters were calculated using Phoenix WinNonlin 8.2.0 pharmacokinetic software with non-compartmental model linear-log trapezoidal method. Table 20. Pharmacokinetic parameters of the compound of the present disclosure in mice

[2] = Pharmacokinetic evaluation in beagle dogs; format: in vivo; details: Beagle dogs (fed)
Excerpt: Male beagle dogs were selected as the experimental animals in this study. The LC/MS/MS method was employed to quantitatively determine the plasma drug concentrations at different time points after intravenous injection or intragastric administration of the test compound, aiming to evaluate the pharmacokinetic characteristics of the compound of the present disclosure in beagle dogs.
Beagle dogs (male, 7 to 10 kg, Beijing Mars Biotechnology Co., Ltd.).
A solution of the test compound was slowly injected intravenously into beagle dogs (fed) via the peripheral vein (vehicle: 5% DMSO/10% Solutol/85% H2O), or administered intragastrically to beagle dogs (fed). For intravenous administration, 0.5 mL of blood was collected from the peripheral vein at 0.083, 0.25, 0.5, 1, 2, 4, 6, 8, and 24 h after administration, placed in EDTA-2K anticoagulant tubes, and centrifuged at 3200 g for 10 minutes at 2 to 8°C to separate the supernatant. For intragastric administration, 0.5 mL of blood was collected from the peripheral vein at 0.083, 0.25, 0.5, 1, 2, 4, 6, 8, and 24 h after administration, placed in EDTA-2K anticoagulant tubes, and centrifuged at 3200 g for 10 minutes at 2 to 8°C to separate the supernatant. Plasma drug concentrations were determined by the LC-MS/MS method, and relevant pharmacokinetic parameters were calculated using Phoenix WinNonlin 6.3 or 8.3.5 pharmacokinetic software with non-compartmental model linear-log trapezoidal method.

[3] = molecular target: T1, IRAK4 (Homo sapiens, UniProt Q9NWZ3); assay: Target protein degradation in K562 IRAK4-HiBiT cells (Nano-Glo HiBiT); format: cell-based
T1 construct: expressed in transfected cells; host or cells: K562 IRAK4-HiBiT cells
T1 sequence (Q9NWZ3 1-460): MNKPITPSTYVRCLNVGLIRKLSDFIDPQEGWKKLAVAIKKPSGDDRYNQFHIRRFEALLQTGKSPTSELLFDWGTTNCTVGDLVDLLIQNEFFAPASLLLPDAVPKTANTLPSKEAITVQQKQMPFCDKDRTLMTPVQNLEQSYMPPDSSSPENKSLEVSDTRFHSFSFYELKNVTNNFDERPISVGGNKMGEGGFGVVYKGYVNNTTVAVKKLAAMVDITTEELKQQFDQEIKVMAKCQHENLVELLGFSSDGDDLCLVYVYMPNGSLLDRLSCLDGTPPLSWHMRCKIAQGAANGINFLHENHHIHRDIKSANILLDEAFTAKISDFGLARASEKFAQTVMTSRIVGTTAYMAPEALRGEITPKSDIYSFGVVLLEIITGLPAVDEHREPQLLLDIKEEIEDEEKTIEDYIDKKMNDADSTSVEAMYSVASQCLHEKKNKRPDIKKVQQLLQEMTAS
Procedure: • Cells: K562 IRAK4-HiBiT cells • Culture medium: RPMI 1640 + 10% fetal bovine serum + 2 mM glutamine + 1 mM sodium pyruvate + penicillin/streptomycin • Positive control: 1000 nM; negative control: 0.1% DMSO Table 6. Reagents and consumables […]
• (1) The cell culture medium was discarded, and the cells were washed once with DPBS, digested with trypsin, and counted to prepare a cell suspension of […]. • (2) 25 µL/well of cell suspension was added to the assay plate containing the test compound using Multidrop Combi at medium speed. • (3) The assay plate containing cells was returned to an incubator with 5% CO2 at 37°C and incubated for 16 to 18 hours.
• (1) 25 µL/well of assay reagent (NanoGlo lysis buffer + substrate + LgBit protein) was added to the assay plate using Multidrop Combi at high speed, and the plate was shaken for 10 minutes. • (2) The plate was centrifuged at 2000 rpm for 1 minute to remove air bubbles. • (3) The plate was read on Envision using US Luminescence detection method.
The degradation rate (DR) of the test compound was calculated using the following formula: DR (%) = (RLU vehicle control - RLU compound)/(RLU vehicle control - RLU positive control)*100%, where the vehicle control served as the blank control. […]

[4] = molecular target: IKZF3 (Homo sapiens, UniProt Q96SW2+Q9UKT9); assay: In cell western analysis of IKZF3 protein expression level in MM.1S cells
Chain of IKZF3 (Q9UKT9 whole entry): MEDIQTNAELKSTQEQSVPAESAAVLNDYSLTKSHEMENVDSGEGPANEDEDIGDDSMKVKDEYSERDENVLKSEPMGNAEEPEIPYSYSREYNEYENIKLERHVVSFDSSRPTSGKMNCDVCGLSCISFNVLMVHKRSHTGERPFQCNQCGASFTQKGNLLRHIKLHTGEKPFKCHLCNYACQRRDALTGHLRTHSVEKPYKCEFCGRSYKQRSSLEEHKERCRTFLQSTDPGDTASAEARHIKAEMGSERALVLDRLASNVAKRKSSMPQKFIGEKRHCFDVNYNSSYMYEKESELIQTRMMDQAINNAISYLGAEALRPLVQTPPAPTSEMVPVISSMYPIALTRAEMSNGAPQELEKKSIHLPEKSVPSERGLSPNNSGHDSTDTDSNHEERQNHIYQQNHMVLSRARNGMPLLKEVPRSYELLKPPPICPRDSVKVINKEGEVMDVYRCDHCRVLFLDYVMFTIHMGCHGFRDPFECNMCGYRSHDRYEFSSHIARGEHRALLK
Chain of IKZF3 (Q96SW2 whole entry): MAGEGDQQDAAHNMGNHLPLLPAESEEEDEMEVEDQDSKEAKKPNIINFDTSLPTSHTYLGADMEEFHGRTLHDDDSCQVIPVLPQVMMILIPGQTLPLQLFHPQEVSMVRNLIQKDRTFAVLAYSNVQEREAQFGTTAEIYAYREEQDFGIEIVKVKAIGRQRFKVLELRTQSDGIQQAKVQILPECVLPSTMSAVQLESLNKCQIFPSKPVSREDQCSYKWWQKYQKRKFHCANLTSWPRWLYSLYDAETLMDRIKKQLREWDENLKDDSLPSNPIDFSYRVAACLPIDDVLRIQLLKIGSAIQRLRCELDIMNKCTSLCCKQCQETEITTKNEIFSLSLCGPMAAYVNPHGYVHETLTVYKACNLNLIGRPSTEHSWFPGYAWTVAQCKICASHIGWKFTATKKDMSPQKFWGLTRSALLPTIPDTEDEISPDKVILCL
Chain of IKZF3 (Q16531 whole entry partner): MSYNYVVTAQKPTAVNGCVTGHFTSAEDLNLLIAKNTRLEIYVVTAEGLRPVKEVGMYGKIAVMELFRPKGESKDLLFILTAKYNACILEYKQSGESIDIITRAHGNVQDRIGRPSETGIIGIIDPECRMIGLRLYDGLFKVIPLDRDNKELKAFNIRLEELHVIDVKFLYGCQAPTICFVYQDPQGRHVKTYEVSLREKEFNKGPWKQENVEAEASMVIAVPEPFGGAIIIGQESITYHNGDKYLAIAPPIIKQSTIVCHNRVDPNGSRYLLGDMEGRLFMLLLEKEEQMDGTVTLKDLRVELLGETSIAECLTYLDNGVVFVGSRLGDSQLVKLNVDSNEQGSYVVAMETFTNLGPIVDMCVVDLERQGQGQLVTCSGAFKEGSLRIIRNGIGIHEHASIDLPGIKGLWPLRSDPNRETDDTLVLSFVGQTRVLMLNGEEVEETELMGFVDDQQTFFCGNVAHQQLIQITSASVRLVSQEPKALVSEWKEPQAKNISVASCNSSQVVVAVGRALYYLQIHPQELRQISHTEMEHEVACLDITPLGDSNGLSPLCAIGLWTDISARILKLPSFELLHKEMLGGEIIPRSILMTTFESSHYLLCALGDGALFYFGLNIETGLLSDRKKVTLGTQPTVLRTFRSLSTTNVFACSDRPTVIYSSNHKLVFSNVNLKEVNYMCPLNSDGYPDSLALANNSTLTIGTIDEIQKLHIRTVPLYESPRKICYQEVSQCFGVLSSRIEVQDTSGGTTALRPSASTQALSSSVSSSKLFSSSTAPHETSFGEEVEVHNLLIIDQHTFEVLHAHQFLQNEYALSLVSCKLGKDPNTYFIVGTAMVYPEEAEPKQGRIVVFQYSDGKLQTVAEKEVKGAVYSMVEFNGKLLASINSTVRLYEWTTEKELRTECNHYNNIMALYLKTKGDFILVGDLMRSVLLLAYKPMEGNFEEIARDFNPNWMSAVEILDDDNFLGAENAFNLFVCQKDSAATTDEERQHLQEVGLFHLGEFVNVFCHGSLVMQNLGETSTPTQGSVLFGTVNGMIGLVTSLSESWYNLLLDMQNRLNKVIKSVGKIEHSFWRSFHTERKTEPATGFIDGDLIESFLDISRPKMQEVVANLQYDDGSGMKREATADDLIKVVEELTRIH
Procedure: (§1) • 1) MM.1S cells in the logarithmic growth phase were seeded into a 96-well plate at 1.2x10^5 cells per well and cultured overnight. • 2) On the second day, drug treatment was initiated with a starting concentration of 300 nM, followed by a 3-fold dilution in triplicate wells, with 10 concentration gradients (containing DMSO), and incubated for 24 hours in a culture incubator. • 3) The mixture was centrifuged, and the cell supernatant was carefully removed. […] The mixture was incubated at room temperature on a shaker for 5 min. • 12) The washing step was repeated 4 times. • 13) The secondary antibody diluent was prepared by adding Tween 20 to the Licor [sequence] blocking buffer at a final concentration of 0.2%. • 14) The fluorescent secondary antibody was diluted in the dark (1:800 dilution). To 400 µL of the secondary antibody diluent, 0.5 µLeach of IRDye 800CW and IRDye 680CW was added (the corresponding fluorescent secondary antibody for the primary antibody). • 15) 50 µL of the diluted fluorescent secondary antibody was added to each well, followed by incubation at room temperature on a shaker in the dark for 60 min. • 16) The secondary antibody was removed, and 200 µL of PBST was added along the well wall without touching the bottom cells. […]
(§2) GraphPad Prism 6 software was utilized to fit the curve with the inhibition rate data, and the DC50 value was calculated.

[5] = molecular target: IKZF1 (Homo sapiens, UniProt Q13422+Q96SW2); assay: In cell western analysis of IKZF1 protein expression level in MM.1S cells
Chain of IKZF1 (Q13422 whole entry): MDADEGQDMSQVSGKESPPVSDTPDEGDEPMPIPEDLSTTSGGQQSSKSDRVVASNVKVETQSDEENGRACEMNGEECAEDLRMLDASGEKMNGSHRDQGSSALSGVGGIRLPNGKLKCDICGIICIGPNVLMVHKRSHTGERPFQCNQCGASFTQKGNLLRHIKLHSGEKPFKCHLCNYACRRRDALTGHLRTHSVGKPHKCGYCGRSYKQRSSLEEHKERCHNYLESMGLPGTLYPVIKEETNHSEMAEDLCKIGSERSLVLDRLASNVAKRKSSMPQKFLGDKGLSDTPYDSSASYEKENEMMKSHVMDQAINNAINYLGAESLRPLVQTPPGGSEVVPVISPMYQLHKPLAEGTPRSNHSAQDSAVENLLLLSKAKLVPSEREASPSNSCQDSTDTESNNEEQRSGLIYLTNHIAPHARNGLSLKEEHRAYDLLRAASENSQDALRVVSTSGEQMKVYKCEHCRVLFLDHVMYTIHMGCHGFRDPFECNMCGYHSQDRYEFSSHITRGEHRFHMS
Chain of IKZF1 (Q96SW2 whole entry): as the sequence (Q96SW2 whole entry) above
Chain of IKZF1 (Q16531 whole entry partner): as the sequence (Q16531 whole entry partner) above
Procedure: as §1, §2

[6] = Intragastric administration (10 mg/kg) (fed)
[7] = Intragastric Administration, 5 mg/kg
[8] = Intragastric Administration, 15 mg/kg
[9] = Intravenous Injection (0.5 mg/kg)
[10] = MM1.S, read-out: Maximum Degradation Rate Dmax

O=C1CCC(c2noc3ccc4c(NC(=O)CN5CCN(C[C@H]6CC[C@H](n7cc(NC(=O)c8coc(-c9ccnc(NCC%10CC%10)c9)n8)c(C(F)F)n7)CC6)CC5)cccc4c23)C(=O)N1 (relative stereo) [Hydrochloride of Compound of Formula (I)]
Area Under the Drug-Time Curve (0-inf) [1, 6]: 4.47 µM·h
Peak Concentration [1, 6]: 0.54 µM
Time to Peak Concentration [1, 6]: 1.00 h
Area Under the Drug-Time Curve (0-inf) ([1]; Intravenous Injection (2 mg/kg) (fasted)): 5.40 µM·h
Area Under the Drug-Time Curve (0-inf) [2, 7]: 3.20 µM·h
Peak Concentration [2, 7]: 0.41 µM
Time to Peak Concentration [2, 7]: 4.00 h
Area Under the Drug-Time Curve (0-inf) [2, 8]: 8.02 µM·h
Peak Concentration [2, 8]: 0.87 µM
Time to Peak Concentration [2, 8]: 4.00 h
Apparent Distribution Volume [2, 9]: 5.83 L/kg
Area Under the Drug-Time Curve (0-inf) [2, 9]: 0.44 µM·h
Dmax ([3]; K562, read-out: Maximum Degradation Rate): 108%
DC50 ([3]; K562 IRAK4-HiBiT cells, incubated 16 to 18 hours): 4.87 nM
DC50 ([4]; IKZF3, MM.1S cells, 24 hours): 20.6 nM
Dmax [4, 10]: 73.5%
DC50 ([5]; IKZF1, MM.1S cells, 24 hours): 23.4 nM
Dmax [5, 10]: 72.3%
